According to US20050130252A1, “Stabilized susceptibility tests of aerobic pathogens” (Wyeth Holdings Corporation, priority 2003, published 2005):
≈ marks a conversion by molar mass, not a printed value. Where two headings read alike, the source gives them in different places.

Tested on: E. coli ATCC 25922
Test: Broth microdilution MIC
Assay type: cell-based, Escherichia coli
Conditions: Escherichia coli
Protocol: The process for preparing susceptibility test medium are the following steps: • a. Preparing Mueller Hinton Broth II medium by adding 22 grams powdered media to 1.0 liter distilled water; • b. Autoclaving (121° C., 15 psi, 15 minutes) and cooling the medium; • c. Adding Oxyrase® up to about 10% final volume and keeping at 35-37° C. in an incubator for 30 minutes; • d. Adding about 50 μL to each well of a 96 well microtiter plate; • e. Weighing drug and adding broth to drug to bring up to about (standard 128 μg/ml); • f. Adding 50 μL of the drug to the first column of the titer plate; • g. Diluting by two-fold serial diluting across or down the plate. • h. Preparing a Prompt™ inoculum at 10^8 CFU/ml; • i. Diluting inoculum 1:100 in the broth at […] in 9.9 ml (1:100) is 10^6 colony forming units (CFU) forming the adjusted inoculum; • j. Adding 50 μL of the adjusted inoculum to the wells of the microtiter plate; • k. Incubating the plates at 35-37° C. for 18-22 hours; and • l. Reading, with the unaided eye, the MIC.
The in vitro activities of tigecycline and control antibiotics were determined by the broth microdilution method as recommended by the NCCLS. (National Committee for Clinical Laboratory Standards, 2003. Methods for Dilution Antimicrobial Susceptibility Tests for Bacteria That Grow Aerobically; Approved Standards: M7-A6, Sixth ed, vol. 23., National Committee for Clinical Laboratory Standards Wayne, Pa.) was used for the standard procedures. MBH with 5% lysed horse blood was used for testing S. pneumoniae and Haemophilus Test Medium was used for testing H. influenzae. Oxyrase® (Oxyrase Inc, Mansfield, Ohio) was used according to the manufacturer's instructions by adding 1 ml of Oxyrase® to 50 ml of media. Media age studies were performed by preparing MHB in multiple flasks, then storing the media under various conditions. MICs were usually performed in duplicate on each day of testing. Storage under anaerobic conditions was conducted in an anaerobic chamber (MACS MG 1000, Don Whitley Scientific LTD). The pH of the media was determined by pH meter (Corning 430). A comparison of the in vitro activity of tigecycline by agar and broth dilution methodolgies with and without Oxyrase® against clinical isolates is shown in Table 1.

For `CN(C)c1cc(NC(=O)CNC(C)(C)C)c(O)c2c1C[C@H]1C[C@H]3[C@H](N(C)C)C(O)=C(C(N)=O)C(=O)[C@@]3(O)C(O)=C1C2=O` [Tigecycline, tigecycline], the MIC (ATCC25922, 0 h, E. coli ATCC 25922, Day 0, Pre-prepared media, room temperature, N = 6) was 0.12 µg/mL (≈ 0.205 µM), the MIC (ATCC25922, 0 h, E. coli ATCC 25922, Day 0, media Fresh from Powder 2° C., N = 6) was 0.03 to 0.06 µg/mL (≈ 0.0512 to 0.102 µM) and the MIC (ATCC25922, 0 h, E. coli ATCC 25922, Day 0, media Fresh from Powder, room temperature, N = 6) was 0.03 µg/mL (≈ 0.0512 µM). For the same compound, the MIC (ATCC25922, 24 h, E. coli ATCC 25922, Day 1, Pre-prepared media, room temperature, N = 6) was 0.12 to 0.25 µg/mL (≈ 0.205 to 0.427 µM), the MIC (ATCC25922, 24 h, E. coli ATCC 25922, Day 1, media Fresh from Powder 2° C., N = 6) was 0.03 to 0.06 µg/mL (≈ 0.0512 to 0.102 µM) and the MIC (ATCC25922, 24 h, E. coli ATCC 25922, Day 1, media Fresh from Powder, room temperature, N = 6) was 0.06 µg/mL (≈ 0.102 µM). The MIC (ATCC25922, 168 h, E. coli ATCC 25922, Day 7, Pre-prepared media, room temperature, N = 6) was 0.12 to 0.25 µg/mL (≈ 0.205 to 0.427 µM), the MIC (ATCC25922, 168 h, E. coli ATCC 25922, Day 7, media Fresh from Powder 2° C., N = 6) was 0.06 µg/mL (≈ 0.102 µM) and the MIC (ATCC25922, 168 h, E. coli ATCC 25922, Day 7, media Fresh from Powder, room temperature, N = 6) was 0.12 µg/mL (≈ 0.205 µM). The MIC (ATCC25922, 336 h, E. coli ATCC 25922, Day 14, Pre-prepared media, room temperature, N = 6) was 0.12 to 0.25 µg/mL (≈ 0.205 to 0.427 µM), the MIC (ATCC25922, 336 h, E. coli ATCC 25922, Day 14, media Fresh from Powder 2° C., N = 6) was 0.12 to 0.25 µg/mL (≈ 0.205 to 0.427 µM) and the MIC (ATCC25922, 336 h, E. coli ATCC 25922, Day 14, media Fresh from Powder, room temperature, N = 6) was 0.12 to 0.25 µg/mL (≈ 0.205 to 0.427 µM). The MIC (ATCC25922, 336 h, read-out: Minimal Inhibitory Concentration, E. coli ATCC 25922, media Aged Aerobic (2 weeks at RT under room air), N = 4) was 0.12 to 0.25 µg/mL (≈ 0.205 to 0.427 µM), the MIC (ATCC25922, 504 h, E. coli ATCC 25922, Day 21, media Fresh from Powder 2° C., N = 6) was 0.25 µg/mL (≈ 0.427 µM) and the MIC (ATCC25922, 504 h, E. coli ATCC 25922, Day 21, media Fresh from Powder, room temperature, N = 6) was 0.12 to 0.25 µg/mL (≈ 0.205 to 0.427 µM). The MIC (ATCC25922, 672 h, E. coli ATCC 25922, Day 28, Pre-prepared media, room temperature, N = 6) was 0.12 to 0.25 µg/mL (≈ 0.205 to 0.427 µM), the MIC (ATCC25922, 672 h, E. coli ATCC 25922, Day 28, media Fresh from Powder 2° C., N = 6) was 0.12 µg/mL (≈ 0.205 µM) and the MIC (ATCC25922, 672 h, E. coli ATCC 25922, Day 28, media Fresh from Powder, room temperature, N = 6) was 0.12 to 0.25 µg/mL (≈ 0.205 to 0.427 µM). It also gave an MIC (ATCC25922, read-out: Minimal Inhibitory Concentration (modal value), E. coli ATCC 25922, Aged Media + Oxyrase, N = 8) of 0.12 µg/mL, an MIC (ATCC25922, read-out: Minimal Inhibitory Concentration (modal value), E. coli ATCC 25922, Aged media, N = 8) of 0.25 µg/mL (≈ 0.427 µM) and an MIC (ATCC25922, read-out: Minimal Inhibitory Concentration (modal value), E. coli ATCC 25922, Fresh Media + Oxyrase, N = 8) of 0.12 µg/mL. It also gave an MIC (ATCC25922, read-out: Minimal Inhibitory Concentration (modal value), E. coli ATCC 25922, Freshly Prepared Media, N = 8) of 0.12 µg/mL (≈ 0.205 µM), an MIC (ATCC25922, read-out: Minimal Inhibitory Concentration, E. coli ATCC 25922, 2% Oxyrase) of 0.03 µg/mL (≈ 0.0512 µM) and an MIC (ATCC25922, read-out: Minimal Inhibitory Concentration, E. coli ATCC 25922, Aged Media + Oxyrase, N = 8) of 0.12 to 0.25 µg/mL. For the same compound, the MIC (ATCC25922, read-out: Minimal Inhibitory Concentration, E. coli ATCC 25922, Aged media, N = 8) was 0.25 to 0.5 µg/mL (≈ 0.427 to 0.854 µM), the MIC (ATCC25922, read-out: Minimal Inhibitory Concentration, E. coli ATCC 25922, Commercially Prepared media, N = 4) was 0.12 to 0.25 µg/mL (≈ 0.205 to 0.427 µM) and the MIC (ATCC25922, read-out: Minimal Inhibitory Concentration, E. coli ATCC 25922, Fresh Media + Oxyrase, N = 8) was 0.06 to 0.12 µg/mL. It also gave an MIC (ATCC25922, read-out: Minimal Inhibitory Concentration, E. coli ATCC 25922, Freshly Prepared Media, N = 8) of 0.12 to 0.25 µg/mL (≈ 0.205 to 0.427 µM), an MIC (ATCC25922, read-out: Minimal Inhibitory Concentration, E. coli ATCC 25922, Freshly Prepared media, N = 4) of 0.03 µg/mL (≈ 0.0512 µM) and an MIC (ATCC25922, read-out: Minimal Inhibitory Concentration, E. coli ATCC 25922, MHB II + 0.05% Catalase) of 0.5 µg/mL. For the same compound, the MIC (ATCC25922, read-out: Minimal Inhibitory Concentration, E. coli ATCC 25922, MHB II + 0.05% L-ascorbic Acid) was 2 µg/mL, the MIC (ATCC25922, read-out: Minimal Inhibitory Concentration, E. coli ATCC 25922, MHB II + 0.05% L-cysteine) was 0.5 µg/mL and the MIC (ATCC25922, read-out: Minimal Inhibitory Concentration, E. coli ATCC 25922, MHB II + 0.05% Sodium Pyruvate) was 0.12 µg/mL. The MIC (ATCC25922, read-out: Minimal Inhibitory Concentration, E. coli ATCC 25922, MHB II + 0.05% Thioglycolate) was 0.12 µg/mL, the MIC (ATCC25922, read-out: Minimal Inhibitory Concentration, E. coli ATCC 25922, MHB II + 2% Oxyrase) was 0.06 µg/mL and the MIC (ATCC25922, read-out: Minimal Inhibitory Concentration, E. coli ATCC 25922, Mueller Hinton Broth II (Fresh)) was 0.06 to 0.25 µg/mL (≈ 0.102 to 0.427 µM). The MIC (ATCC25922, read-out: Minimal Inhibitory Concentration, E. coli ATCC 25922, Mueller Hinton Broth II (MHB II)) was 0.12 to 0.25 µg/mL (≈ 0.205 to 0.427 µM).
